Test results as given in US10954252B1, “Inhibitors of human immunodeficiency virus replication” (ViiV HEALTHCARE UK (NO.5) LIMITED, priority 2017, dated 2021).

How the values were obtained:
[1] = Compound cytotoxicity, XTT-based colorimetric assay; format: cell-based; conditions: human, uninfected MT2 cells
Protocol: Compound cytotoxicity and the corresponding CC50 values were determined using the same protocol as described in the antiviral assay except that uninfected cells were used. Cytotoxicity was assessed on day 4 in uninfected MT2 cells by using a XTT (2,3-bis[2-Methoxy-4-nitro-5-sulfophenyl]-2H-tetrazolium-5-carboxyanilide inner salt)-based colorimetric assay (Sigma-Aldrich, St Louis, Mo.). Biological data for select compounds of the invention are contained in Table 1 and Table 1a

[2] = tested on: recombinant NL4-3 virus (nef section replaced with Renilla luciferase gene) in MT-2 cells; test: HIV cell culture assay (antiviral activity, luciferase readout); format: cell-based; conditions: MT-2 cells infected for 4-5 days with recombinant NL4-3 luciferase virus
Protocol: HIV cell culture assay—MT-2 cells, 293T cells and the proviral DNA clone of NL4-3 virus were obtained from the NIH AIDS Research and Reference Reagent Program. MT-2 cells were propagated in RPMI 1640 media supplemented with 10% heat inactivated fetal bovine serum (FBS), 100 μg/ml penicillin G and up to 100 units/mL streptomycin. The 293T cells were propagated in DMEM media supplemented with 10% heat inactivated FBS, 100 μg/mL penicillin G and 100 μg/mL streptomycin. A recombinant NL4-3 proviral clone, in which a section of the nef gene was replaced with the Renilla luciferase gene, was used to make the reference virus used in these studies. The recombinant virus was prepared through transfection of the recombinant NL4-3 proviral clone into 293T cells using Transit-293 Transfection Reagent from Mirus Bio LLC (Madison, Wis.). Supernatent was harvested after 2-3 days and the amount of virus present was titered in MT-2 cells using luciferase enzyme activity as a marker by measuring luciferase enzyme activity. Luciferase was quantitated using the EnduRen Live Cell Substrate from Promega (Madison, Wis.). Antiviral activities of compounds toward the recombinant virus were quantified by measuring luciferase activity in MT-2 cells infected for 4-5 days with the recombinant virus in the presence of serial dilutions of the compound.
The 50% effective concentration (ECs) was calculated by using the exponential form of the median effect equation where (Fa)=1/[1+(ED50/drug conc.)^m] (Johnson Va., Byington RT. Infectivity Assay. In Techniques in HIV Research. ed. Aldovini A, Walker BD. 71-76. New York: Stockton Press. 1990).

Compound	CC50 at 4 days ([1]; Table 1a, day 4, XTT) [nM]	EC50 ([2]; Table 1a) [nM]	EC50 ([2]; Renilla, NL43, Table 1a) [nM]	CC50 at 4 days ([1]; Table 1, day 4, XTT) [nM]	EC50 ([2]; Renilla, NL43, Table 1) [nM]
Cn1nc(NS(C)(=O)=O)c2c(Cl)ccc(-c3cc4cc[nH]c4nc3C(Cc3cc(F)cc(F)c3)NC(=O)Cn3nc(C(F)F)c4c3C(F)(F)[C@@H]3C[C@H]43)c21 (single isomer, unassigned) [Example 83]	> 10000	1.02	–	–	–
Cn1ccc2nc([C@@H](Cc3cc(F)cc(F)c3)NC(=O)Cn3nc(C(F)F)c4c3C(F)(F)[C@@H]3C[C@H]43)c(-c3ccc(Cl)c4c(NS(C)(=O)=O)nn(C)c34)cc21 (single isomer, unassigned) [Example 121]	> 10000	–	171	–	–
Cn1nc(NS(C)(=O)=O)c2c(Cl)ccc(-n3c(C(Cc4cc(F)cc(F)c4)NC(=O)Cn4nc(C(F)F)c5c4C(F)(F)C4CC54)nc4nc(Cl)ccc4c3=O)c21 (stereo in doubt) [Example 12.1, N—((S)-1-(7-chloro-3-(4-chloro-1-methyl-3-(methylsulfonamido)-1H-indazol-7-yl)-4-oxo-3,4-dihydropyrido[2,3-d]pyrimidin-2-yl)-2-(3,5-difluorophenyl)ethyl)-2-((3bS,4aR)-3-(difluoromethyl)-5,5-difluoro-3b,4,4a,5-tetrahydro-1H-cyclopropa[3,4]cyclopenta[1,2-c]pyrazol-1-yl)acetamide]	–	–	–	> 10000	4310
Cn1nc(NS(C)(=O)=O)c2c(Cl)ccc(-n3c([C@H](Cc4cc(F)cc(F)c4)NC(=O)Cn4nc(C(F)F)c5c4C(F)(F)[C@@H]4C[C@H]54)nc4cc(F)ccc4c3=O)c21 [Example 18, N—((S)-1-(3-(4-chloro-1-methyl-3-(methylsulfonamido)-1H-indazol-7-yl)-7-fluoro-4-oxo-3,4-dihydroquinazolin-2-yl)-2-(3,5-difluorophenyl)ethyl)-2-((3bS,4aR)-3-(difluoromethyl)-5,5-difluoro-3b,4,4a,5-tetrahydro-1H-cyclopropa[3,4]cyclopenta[1,2-c]pyrazol-1-yl)acetamide]	–	–	–	> 10000	36
Cn1nc(NS(C)(=O)=O)c2c(Cl)ccc(-n3c([C@H](Cc4cc(F)cc(F)c4)NC(=O)Cn4ccc(C5CC5)n4)nc4cc(F)cc(F)c4c3=O)c21 (single isomer, unassigned) [Example 131]	> 1000	–	111	–	–
Cc1c(F)ccc2c(=O)n(-c3ccc(Cl)c4c(NS(C)(=O)=O)nn(C)c34)c([C@H](Cc3cc(F)cc(F)c3)NC(=O)Cn3nc(C(F)F)c4c3C(F)(F)[C@@H]3C[C@H]43)nc12 (single isomer, unassigned) [Example 107]	> 1000	27.3	–	–	–
CS(=O)(=O)Nc1nn(CC(F)(F)F)c2c(-c3cc4[nH]ncc4nc3[C@H](Cc3cc(F)cc(F)c3)NC(=O)Cn3nc(C(F)F)c4c3C(F)(F)[C@@H]3C[C@H]43)ccc(Cl)c12 (single isomer, unassigned) [Example 94]	> 1000	–	0.146	–	–
Cn1nc(NS(C)(=O)=O)c2c(Cl)ccc(-n3c([C@H](Cc4cc(F)cc(F)c4)NC(=O)Cn4nc(C(F)F)c5c4C(F)(F)[C@@H]4C[C@H]54)nc4cc(S(C)(=O)=O)ccc4c3=O)c21 (mixture of isomers) [Example 199, N—((S)-1-(3-(4-chloro-1-methyl-3-(methylsulfonamido)-1H-indazol-7-yl)-7-(methylsulfonyl)-4-oxo-3,4-dihydroquinazolin-2-yl)-2-(3,5-difluorophenyl)ethyl)-2-((3bS,4aR)-3-(difluoromethyl)-5,5-difluoro-3b,4,4a,5-tetrahydro-1H-cyclopropa[3,4]cyclopenta[1,2-c]pyrazol-1-yl)acetamide]	> 1000	32.8	–	–	–
COC(=O)c1cc(-c2cc3[nH]ncc3nc2[C@H](Cc2cc(F)cc(F)c2)NC(=O)Cn2nc(C(F)F)c3c2C(F)(F)[C@@H]2C[C@H]32)ccc1Cl [Example 10.9, Methyl 2-chloro-5-(5-((S)-1-(2-((3bS,4aR)-3-(difluoromethyl)-5,5-difluoro-3b,4,4a,5-tetrahydro-1H-cyclopropa[3,4]cyclopenta[1,2-c]pyrazol-1-yl)acetamido)-2-(3,5-difluorophenyl)ethyl)-1H-pyrazolo[4,3-b]pyridin-6-yl)benzoate]	–	–	–	8950	1080
Cn1nc(NS(C)(=O)=O)c2c(Cl)ccc(-n3c([C@H](Cc4cc(F)cc(F)c4)NC(=O)Cn4nc(C(F)F)c5c4C(F)(F)[C@@H]4C[C@H]54)nc4c(C(N)=O)cccc4c3=O)c21 (single isomer, unassigned) [Example 106]	> 1000	–	23.8	–	–
CS(=O)(=O)Nc1nn(CC(F)F)c2c(-n3c([C@H](Cc4cc(F)cc(F)c4)NC(=O)Cn4nc(C(F)F)c5c4C(F)(F)C4CC54)nc4ncccc4c3=O)ccc(Cl)c12 (single isomer, unassigned) [Example 14.1]	–	–	–	> 10000	49
NC(=O)c1cc(-c2cc3[nH]ncc3nc2[C@H](Cc2cc(F)cc(F)c2)NC(=O)Cn2nc(C(F)F)c3c2C(F)(F)[C@@H]2C[C@H]32)ccc1F [Example 10.6, 5-(5-((S)-1-(2-((3bS,4aR)-3-(difluoromethyl)-5,5-difluoro-3b,4,4a,5-tetrahydro-1H-cyclopropa[3,4]cyclopenta[1,2-c]pyrazol-1-yl)acetamido)-2-(3,5-difluorophenyl)ethyl)-1H-pyrazolo[4,3-b]pyridin-6-yl)-2-fluorobenzamide]	–	–	–	> 10000	16
Cn1nc(NS(C)(=O)=O)c2c(Cl)ccc(-n3c([C@H](Cc4cc(F)cc(F)c4)NC(=O)Cn4nc(C(F)F)c5c4C(F)(F)[C@@H]4C[C@H]54)nc4cc(C#N)ccc4c3=O)c21 (single isomer, unassigned) [Example 20]	–	–	–	> 10000	24
O=C(Cn1nc(C(F)F)c2c1C(F)(F)[C@@H]1C[C@H]21)N[C@@H](Cc1cc(F)cc(F)c1)c1nc2ncccc2c(=O)n1-c1ccc(Cl)c2c(NS(=O)(=O)C3CC3)nn(CC(F)F)c12 (mixture of isomers) [Example 45.2, N-[(1S)-1-{3-[4-chloro-3-cyclopropanesulfonamido-1-(2,2-difluoroethyl)-1H-indazol-7-yl]-4-oxo-3H,4H-pyrido[2,3-d]pyrimidin-2-yl}-2-(3,5-difluorophenyl)ethyl]-2-[(2S,4R)-9-(difluoromethyl)-5,5-difluoro-7,8-diazatricyclo[4.3.0.0^2,4]nona-1(6),8-dien-7-yl]acetamide]	> 1000	–	0.024	–	–
O=C(Cn1nc(C(F)F)c2c1C(F)(F)[C@@H]1C[C@H]21)N[C@@H](Cc1cc(F)cc(F)c1)c1nc2cc[nH]c2cc1-c1ccc(S(=O)(=O)N2CCOCC2)cc1 [Example 65, 2-((3bS,4aR)-3-(difluoromethyl)-5,5-difluoro-3b,4,4a,5-tetrahydro-1H-cyclopropa[3,4]cyclopenta[1,2-c]pyrazol-1-yl)-N—((S)-2-(3,5-difluorophenyl)-1-(6-(4-(morpholinosulfonyl)phenyl)-1H-pyrrolo[3,2-b]pyridin-5-yl)ethyl)acetamide]	2000	–	2.03	–	–
COc1cc(F)c2c(=O)n(-c3ccc(Cl)c4c(NS(C)(=O)=O)nn(C)c34)c([C@H](Cc3cc(F)cc(F)c3)NC(=O)Cn3ccc(C4CC4)n3)nc2c1 [Example 188, (S)—N-(1-(3-(4-chloro-1-methyl-3-(methylsulfonamido)-1H-indazol-7-yl)-5-fluoro-7-methoxy-4-oxo-3,4-dihydroquinazolin-2-yl)-2-(3,5-difluorophenyl)ethyl)-2-(3-cyclopropyl-1H-pyrazol-1-yl)acetamide]	> 1000	–	–	–	–
Cn1nc(NS(C)(=O)=O)c2c(Cl)ccc(-n3c([C@H](Cc4cc(F)cc(F)c4)NC(=O)Cn4ccc(C5CC5)n4)nc4cc(CS(C)(=O)=O)ccc4c3=O)c21 [Example 205, (S)—N-(1-(3-(4-chloro-1-methyl-3-(methylsulfonamido)-1H-indazol-7-yl)-7-((methylsulfonyl)methyl)-4-oxo-3,4-dihydroquinazolin-2-yl)-2-(3,5-difluorophenyl)ethyl)-2-(3-cyclopropyl-1H-pyrazol-1-yl)acetamide]	> 1000	–	–	–	–
COc1cccc2c(=O)n(-c3ccc(Cl)c4c(NS(C)(=O)=O)nn(C)c34)c([C@H](Cc3cc(F)cc(F)c3)NC(=O)Cn3nc(C(F)F)c4c3C(F)(F)[C@@H]3C[C@H]43)nc12 (single isomer, unassigned) [Example 103]	> 1000	–	–	–	–
Cn1nc(NS(C)(=O)=O)c2c(Cl)ccc(-n3c([C@H](Cc4cc(F)cc(F)c4)NC(=O)Cn4ccc(C5CC5)n4)nc4cc(C(F)(F)F)ccc4c3=O)c21 (single isomer, unassigned) [Example 150]	> 1000	–	–	–	–
